Assay results reported in patent US12612410B2 (CHILDREN'S HOSPITAL MEDICAL CENTER, priority 2020, dated 2026).

Experiments:
IRAK4 [1] = biological target: T1, IRAK4 (Homo sapiens, UniProt Q9NWZ3); assay: RBC HotSpot Kinase Assay, IRAK4; type: biochemical; design: purchased Reaction Biology (RBC), HotSpot kinase assay; settings: isolated kinase, 33P-ATP
T1 sequence (Q9NWZ3 1-460): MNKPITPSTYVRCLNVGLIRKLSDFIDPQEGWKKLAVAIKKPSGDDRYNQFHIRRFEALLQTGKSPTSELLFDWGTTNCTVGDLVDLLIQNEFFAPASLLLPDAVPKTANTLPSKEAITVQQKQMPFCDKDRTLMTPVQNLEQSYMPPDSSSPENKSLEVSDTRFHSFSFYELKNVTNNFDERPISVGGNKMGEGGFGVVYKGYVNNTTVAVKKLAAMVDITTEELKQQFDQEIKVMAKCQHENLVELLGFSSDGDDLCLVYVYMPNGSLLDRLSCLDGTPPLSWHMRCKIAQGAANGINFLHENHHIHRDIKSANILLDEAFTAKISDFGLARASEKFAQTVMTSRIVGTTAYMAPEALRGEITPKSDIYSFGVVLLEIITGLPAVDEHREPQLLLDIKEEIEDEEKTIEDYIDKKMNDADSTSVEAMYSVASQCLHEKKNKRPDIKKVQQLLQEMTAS
In short: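 Functional radiometric activity assay: kinase + substrate + cofactors in Hepes pH 7.5/MgCl2/EGTA/Brij35/BSA/Na3VO4/DTT, 1% DMSO; cmpd preincubation 20 min RT; 33P-ATP start, 2 h RT; P81 filter-binding readout.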

IRAK4 [2] = biological target: T1, IRAK4; assay: Reaction Biology NanoBRET target engagement assay, IRAK4; type: cell-based; settings: transfected HEK-293 cells
Text: The NanoBRET assay measures kinase engagement in real time in the context of the intact cell. Unlike the previously described biochemical kinase assay methodologies in Examples 26-27, the NanoBRET assay measures the binding and activity characteristics under equilibrium conditions using full-length kinases in the presence of cellular concentrations of ATP in live, uncompromised cells. As such, the assay provides a more relevant assessment of kinase potency and selectivity that would be expected to be observed in the native cellular environment, where potency is often considerably lower than that observed in the isolated biochemical assays (Vasta, J. D. et al., (2018) Cell Chem. Biol. 25, 206-214). The assay uses a Kinase-NanoLuc® fusion vector expressing a kinase protein to which a luciferase tag has been added, a cell-permeant fluorescent NanoBRET™ tracer, a NanoLuc® substrate, and an extracellular NanoLuc® inhibitor. Upon expression of the luciferase-tagged kinase, cells will produce a strong BRET signal only in the presence of the NanoBRET™ tracer. The extracellular NanoLuc® inhibitor ensures that the BRET signal observed emanates only from live cells. Because the BRET signal has tight distance constraints, addition of the test compound will decrease the BRET signal if the compound competes with the NanoBRET™ tracer for binding to the kinase domain. Under the appropriate tracer conditions established by the manufacturer, quantitative intracellular affinity and relative potency can then be determined using Mass Action model equations.
HEK-293 cells were purchased from ATCC. FuGENEHD Transfection Reagent, Kinase-NanoLucfusion plasmids, Transfection Carrier DNA, NanoBRETTracers and dilution buffer, NanoBRETNano-Glo Substrate, Extracellular NanoLucInhibitor were obtained from Promega.
Assays were conducted following Promega assay protocol with some modifications. HEK-293 Cells were transiently transfected with Kinase-NanoLucFusion Vector DNA by FuGENEHD Transfection Reagent. Testing compounds were delivered into 384 well assay plate by Echo 550 (Labcytelnc, Sunnyvale, CA). Transfected cells were harvested and mixed with NanoBRETTracer Reagent and dispensed into 384 well plates and incubated at 37° C. in 5% CO2 cell culture incubator for 1 hour. The NanoBRETNano-Glo Substrate plus Extracellular NanoLucInhibitor Solution were added into the wells of the assay plate and incubated for 2-3 minutes at room temperature. The donor emission wavelength (460 nm) and acceptor emission wavelength (600 nm) were measured in the EnVisionplate reader. The BRET Ratios were calculated. BRET Ratio=[(Acceptor sample÷Donor sample)−(Acceptor no-tracer control÷Donor no-tracer control)]. The IC50 values of compounds were calculated with Prism GraphPad program.
NanoBRET™ Target Engagement Assay Protocol
1. Transient Transfection of HEK-293 Cells NanoLuc® Fusion Vector DNA
• 1). Cultivate HEK-293 cells (70-80% confluence) appropriately prior to assay. Trypsinize and collect HEK-293 cells. • 2). Prepare lipid: DNA complexes as follows: • a. Prepare a […] solution of DNA in Opti-MEM without serum that consists of the following ratios of carrier DNA and DNA encoding NanoLuc® fusion. 9.0 µg/mL of Transfection Carrier DNA, […] of NanoLuc fusion vector DNA and 1 mL of Opti-MEM without phenol red. Mix thoroughly. • b. Add 30 l of FuGENE HD Transfection Reagent into each milliliter of DNA mixture to form lipid: DNA complex. • c. Mix by inversion 10 times. • d. Incubate at ambient temperature for 20 minutes to allow complexes to form. • 3). In a sterile, conical tube, mix 1 part of lipid: DNA complex with 20 parts of HEK-293 cells in suspension. Mix gently by inversion 5 times. • 4). Dispense cells+lipid: DNA complex into a sterile tissue culture dish and incubate for 22-24 hours. 2. Addition of Test Compounds (dry plate shooting)
Each test compound is delivered from the compound source plate to the wells of 384-well white NBS plate by Echo 550.
3. […]

Row | SMILES | IC50 (IRAK4 [1]) [nM] | IC50 (IRAK4 [2]) [nM]
1 | O=C1CCCN1c1cn2c(-c3nc(N[C@H]4CNCC[C@@H]4F)c(F)cc3F)cnc2cn1 [Compound 107, 1-[3-[3,5-difluoro-6-[[(3S,4S)-4-fluoro-3-piperidyl]amino]-2-pyridyl]imidazo[1,2-a]pyrazin-6-yl]pyrrolidin-2-one] | 38 | 10
2 | O=C1CCCN1c1cn2c(-c3nc(N[C@@H]4CCCNC4)c(F)cc3F)cnc2cn1 [Compound 108, (R)-1-(3-(3,5-difluoro-6-(piperidin-3-ylamino)pyridin-2-yl)imidazo[1,2-a]pyrazin-6-yl)pyrrolidin-2-one] | 13 | 1
3 | O=C1CCCN1c1cn2c(-c3cccc(N[C@H]4CNCC[C@@H]4F)n3)cnc2cn1 [Compound 119, 1-(3-(6-(((3S,4S)-4-fluoropiperidin-3-yl)amino)pyridin-2-yl)imidazo[1,2-a]pyrazin-6-yl)pyrrolidin-2-one] | 10 | 2
4 | O=C1CCCN1c1cn2c(-c3cccc(N[C@H]4CNC[C@@H]4F)n3)cnc2cn1 [Compound 121, 1-(3-(6-(((3S,4S)-4-fluoropyrrolidin-3-yl)amino)pyridin-2-yl)imidazo[1,2-a]pyrazin-6-yl)pyrrolidin-2-one] | 5 | 2
5 | CC(C)(C)c1cn2c(-c3nc(N[C@H]4CNCC[C@@H]4F)c(F)cc3F)cnc2cn1 [Compound 127, 6-(6-(tert-butyl)imidazo[1,2-a]pyrazin-3-yl)-3,5-difluoro-N-((3S,4S)-4-fluoropiperidin-3-yl)pyridin-2-amine] | 2 | 0.4
6 | CC(C)(C)c1cn2c(-c3cccc(N[C@H]4CNCC[C@@H]4F)n3)cnc2cn1 [Compound 130, 6-(6-(tert-butyl)imidazo[1,2-a]pyrazin-3-yl)-N-((3S,4S)-4-fluoropiperidin-3-yl)pyridin-2-amine] | 3 | < 0.5

The remaining lines, values ahead:

Row | IC50 (IRAK4 [1]) [nM] | IC50 (IRAK4 [2]) [nM] | SMILES
7 | 0.7 | < 0.5 | CC(C)(C)c1cn2c(-c3nc(N[C@H]4CNC[C@@H]4F)c(F)cc3F)cnc2cn1 [Compound 125]
8 | 2 | < 0.5 | CC(C)(C)c1cn2c(-c3nc(N[C@@H]4CCCNC4)c(F)cc3F)cnc2cn1 [Compound 126, (R)-6-(6-(tert-butyl)imidazo[1,2-a]pyrazin-3-yl)-3,5-difluoro-N-(piperidin-3-yl)pyridin-2-amine]
9 | 1 | < 0.5 | CC(C)(C)c1cn2c(-c3cccc(N[C@@H]4CCCNC4)n3)cnc2cn1 [Compound 129, (R)-6-(6-(tert-butyl)imidazo[1,2-a]pyrazin-3-yl)-N-(piperidin-3-yl)pyridin-2-amine]
